Data on three compounds can be found in patent US20250353827A1, “INDOLINE DERIVATIVES AS SEROTONERGIC AGENTS USEFUL FOR THE TREATMENT OF DISORDERS RELATED THERETO” (MINDSET PHARMA INC., priority 2022, published 2025).

In one series the test system is Male, C57BL/6J mice. Description: Mouse head twitch. As to conditions: for head twitches (mean): counted over 1 hr, male C57BL/6J mice; for other behavioural signs (locomotion, core body temperature, 5-HT syndrome) in words: psilocybin 3 and 10 mg/kg, 5-MeO DMT 3-30 mg/kg, II-1 0.3-30 mg/kg. In kind it is in vivo. On the procedure: The effect of different doses of representative compounds of Formula I were evaluated on head-twitch response (HTR) and other behavioural responses as behavior-based models of psychedelic activity.
Male, C57BL/6J mice (body weight range 20-30 g) were dosed with the appropriate dose of test article, and following a 1-minute pre-treatment time, placed in individual observation chambers. Animals were visually assessed for the incidence head twitches continuously over a 1 hr period. Head twitches were defined as a rapid jerk of the head which was not elicited by an external tactile stimulus (Come and Pickering, Psychopharmacologia, 1967, 11(1): 65-78). Each head twitch was individually counted by a trained observer, and the data was expressed as the mean±SEM of 6-10 mice per group. Mice were used in a single experiment only.
The head twitch response of exemplary compound II-1 (1-30 mg/kg SC) was compared to 5-MeO DMT and psilocybin (FIG. 1, Table 6).

A short description of series [1]: Liver microsomes stability, rat.
Series [2] can be described thus: Liver microsomes stability, mouse. On the procedure: (§1) The objective of this study was to estimate in vitro metabolic stability of representative compounds of the application in pooled human and male mouse liver microsomes. The concentrations of parent compounds in reaction systems were evaluated by LC-MS/MS for estimating the stability in pooled human and male mouse liver microsomes. The in vitro intrinsic clearances of test compounds were determined as well.
(§2) A master solution in the “Incubation Plate” containing phosphate buffer, ultra-pure H2O, MgCl2 solution and liver microsomes was made according to Table 3. The mixture was pre-warmed at 37° C. water bath for 5 minutes.
(§3) 40 μL of 10 mM NADPH solution was added to each well. The final concentration of NADPH was 1 mM. The negative control samples were prepared by replacing NADPH with 40 μL of ultra-pure H2O. Samples were prepared in duplicate. Negative controls were prepared in singlet.
(§4) The reaction was started with the addition of 4 μL of 200 μM test compounds or control compounds to each master solution to get the final concentration of 2 μM. This study was performed in duplicate.
(§5) Aliquots of 50 μL were taken from the reaction solution at 0, 15, 30, 45 and 60 minutes. The reaction solutions were stopped by the addition of 4 volumes of cold methanol with IS (100 nM alprazolam, 200 nM imipramine, 200 nM labetalol and 2 μM ketoprofen). Samples were centrifuged at 3,220 g for 40 minutes. Aliquot of 90 μL of the supernatant was mixed with 90 μL of ultra-pure H2O and then was used for LC-MS/MS analysis.
(§6) LC/MS analysis was performed for all samples from this study using a Shimadzu liquid chromatograph separation system equipped with degasser DGU-20A5R; solvent delivery unit LC-30AD; system controller SIL-30AC; column oven CTO-30A; CTC Analytics HTC PAL System. Mass spectrometric analysis was performed using a Triple Quad™ 5500 instrument.
(§7) All calculations were carried out using Microsoft Excel. Peak areas were determined from extracted ion chromatograms. The slope value, k, was determined by linear regression of the natural logarithm of the remaining percentage of the parent drug vs. incubation time curve.
(§8) The in vitro half-life (in vitro t1/2) was determined from the slope value:
(§9) Conversion of the in vitro t1/2 (min) into the in vitro intrinsic clearance (in vitro CLint, in μL/min/mg proteins) was done using the following equation (mean of duplicate determinations): […]

Series [3] can be described thus: Liver microsomes stability, human. As to conditions: for Remaining Percentage: human. On the procedure:
as §1, §2, §3, §4, §5, §6, §7, §8, §9

`CN(C)CCc1c[nH]c2cccc(OP(=O)(O)O)c12` [psilocybin]: the “head twitches (mean)” value with Male, C57BL/6J mice (0.1 mg/kg SC) came to 4.8; in the series on Male, C57BL/6J mice (0.3 mg/kg SC), 6.3; with Male, C57BL/6J mice (1 mg/kg SC) it was 16.3; in the series with Male, C57BL/6J mice (3 mg/kg SC), 7.8; with Male, C57BL/6J mice (10 mg/kg SC), 5.5. For the same compound, the “dose at which head twitch response reached a peak” value with Male, C57BL/6J mice (SC, 0.1-10 mg/kg tested) worked out at 1 mg/kg. Moreover, the “other behavioural signs (locomotion, core body temperature, 5-HT syndrome) in words” value with Male, C57BL/6J mice (SC) is “decreased locomotion and decreased core body temperature”.

In series [1] (rat liver microsomes, 2 μM, 0.5 mg/mL), `O=C(O)Cc1ccccc1Nc1c(Cl)cccc1Cl` [Diclofenac] showed a T1/2 of 14.62 min. The “Remaining Percentage” value in series [1] (rat, With NADPH, 0 min) was determined as 100.00%; in series [1] (rat, With NADPH, 30 min), 10.72%; in series [1] (rat, With NADPH, 60 min), 5.82%; in series [1] (rat, Without NADPH, 0 min), 100.00%; in series [1] (rat, Without NADPH, 30 min), 100.00%; in series [1] (rat, Without NADPH, 60 min), 96.90%. Further, the “Remaining Percentage” value in series [2] (mouse, With NADPH, 0 min) was determined as 100.00%; in series [2] (mouse, With NADPH, 30 min) it was 51.50%; in series [2] (mouse, With NADPH, 60 min), 38.74%; in series [2] (mouse, Without NADPH, 0 min), 100.00%; in series [2] (mouse, Without NADPH, 30 min), 105.81%; in series [2] (mouse, Without NADPH, 60 min), 102.49%. The “Remaining Percentage” value in series [3] (With NADPH, 0 min) worked out at 100.00%; in series [3] (With NADPH, 30 min), 4.80%; in series [3] (With NADPH, 60 min), 1.80%; in series [3] (Without NADPH, 0 min) it was 100.00%; in series [3] (Without NADPH, 30 min), 91.86%; in series [3] (Without NADPH, 60 min), 91.86%. For the same compound, the “Predicted hepatic CL” value in series [1] (rat, liver microsomes) is on record as 41.66 mL/min/kg; in series [2] (mouse liver microsomes), 54.52 mL/min/kg; in series [3] (human liver microsomes), 18.43 mL/min/kg. Besides, the microsomal CLint at 2 μM in series [1] (rat, liver microsomes) was found to be 94.8 µL/min/mg; in series [2] (male, mouse, microsomes) it was 31.6 µL/min/mg. Further, in series [2] (male, mouse, microsomes), the half-life at 2 μM came to 43.9 min. Besides, in series [2] (mouse liver microsomes), the “Scaled-up CLint” value is 138.28 mL/min/kg.

Regarding `COc1ccc2[nH]cc(CCN(C)C)c2c1` [5-MeO DMT], the “head twitches (mean)” value is given as 3.0 in the series on Male, C57BL/6J mice (1 mg/kg SC); 4.2 in the series with Male, C57BL/6J mice (3 mg/kg SC); 7.8 in the series on Male, C57BL/6J mice (10 mg/kg SC); 12.3 in the series on Male, C57BL/6J mice (30 mg/kg SC). For the same compound, the “head twitch response (in words)” value with Male, C57BL/6J mice (SC, dose range as in the sentence) is given as “monotonic increase in head twitches”. For the same compound, the “other behavioural signs (locomotion, core body temperature, 5-HT syndrome) in words” value in the series on Male, C57BL/6J mice (SC) is reported as “behavioural signs associated with 5-HT syndrome”.
